This passage reports EC50 results from patent publication US20230339886A1 (University of Florida Research Foundation, Incorporated, priority 2020, published 2023).

The structures appear in SMILES notation.

T1 sequence (P20393 with tags, fused parts or gaps DEL324-422): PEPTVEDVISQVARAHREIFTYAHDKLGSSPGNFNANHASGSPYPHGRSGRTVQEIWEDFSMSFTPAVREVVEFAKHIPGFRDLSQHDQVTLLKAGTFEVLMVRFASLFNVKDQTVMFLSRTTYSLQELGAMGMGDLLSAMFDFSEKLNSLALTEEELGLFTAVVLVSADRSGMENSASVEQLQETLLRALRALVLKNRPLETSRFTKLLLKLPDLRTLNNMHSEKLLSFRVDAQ
T1 sequence (Q9Y618 2335-2356 partner limits assumed): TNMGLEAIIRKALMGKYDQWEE

One assay has as its target T1, REV-ERBα LBD (human; residues 281-614 Δ324-422) (Homo sapiens, UniProt P20393, DEL324-422).
T1 construct: 6×Histag-REV-ERBα LBD (human; residues 281-614 Δ324-422); made in house; host or cells: Escherichia coli
The assay can be described thus: TR-FRET corepressor interaction assay (REV-ERBα LBD, FITC-SMRT peptide). The format is biochemical. The settings on record: FITC-SMRT peptide, read-out: REVERBα agonism (EC50 class, FRET assay). The method, then: TR-FRET corepressor interaction assay. The time-resolved fluorescence resonance energy transfer (TR-FRET) assay was performed in black low-volume 384-well plates (Greiner). […] Ligand stocks were prepared via serial dilution in DMSO, added to wells in triplicate, and plates were incubated at 4° C. for 2 h and read using a BioTek Synergy Neo multimode plate reader. The Tb donor was excited at 340 nm; its fluorescence emission was monitored at 495 nm, and the acceptor FITC emission was measured at 520 nm; and the TR-FRET ratio was calculated as the signal at 520 nm divided by the signal at 495 nm. Data were plotted using GraphPad Prism as TR-FRET ratio vs. ligand concentration and fit to sigmoidal dose response curve equation.
In general terms: TR-FRET usually uses a lanthanide donor and a delayed reading to cut background.
With `O=S(=O)(N[C@@H](c1cn(CC2(C(F)(F)F)CC2)c2cc(-c3ccccc3C(F)(F)F)ccc12)C(F)(F)F)C1CCC1` [Example 523, (S)—N-(2,2,2-trifluoro-1-(1-((1-(trifluoromethyl)cyclopropyl)methyl)-6-(2-(trifluoromethyl)phenyl)-1H-indol-3-yl)ethyl)cyclobutanesulfonamide], the EC50 – broadly, the midpoint of the concentration-response curve – is less than 500 nM. As to `CC(C)(C)Cn1cc([C@H](NS(=O)(=O)C2CCC2)C(F)(F)F)c2cc(F)c(-c3ncccc3C#N)cc21` [Example 538, (S)—N-(1-(6-(3-cyanopyridin-2-yl)-5-fluoro-1-neopentyl-1H-indol-3-yl)-2,2,2-trifluoroethyl)cyclobutanesulfonamide], the EC50 is less than 500 nM. With `CC(C)Cn1cc(C(CS(=O)(=O)C2CC2)C(F)(F)F)c2ccc(-c3ccccc3C(F)(F)F)cc21` (centres unmarked) [Example 498, 3-(3-(cyclopropylsulfonyl)-1,1,1-trifluoropropan-2-yl)-1-isobutyl-6-(2-(trifluoromethyl)phenyl)-1H-indole], the EC50 lay within 500 to 3000 nM. On the same count and under the same terms, in the case of `CC(C)C(=O)n1cc([C@H](NS(=O)(=O)C2CCC2)C(F)(F)F)c2cc(F)c(-c3ccccc3C(F)(F)F)cc21` [Example 505, (S)—N-(2,2,2-trifluoro-1-(5-fluoro-1-isobutyryl-6-(2-(trifluoromethyl)phenyl)-1H-indol-3-yl)ethyl)cyclobutanesulfonamide] it was less than 500 nM; in that of `CC(C)(C)Cn1cc([C@H](NS(=O)(=O)C2CC2)C(F)(F)F)c2ccc(-c3cccc(C#N)c3F)cc21` [Example 473, (S)—N-(1-(6-(3-cyano-2-fluorophenyl)-1-neopentyl-1H-indol-3-yl)-2,2,2-trifluoroethyl)cyclopropanesulfonamide], 500 to 3000 nM; in that of `CC(C)(C)Cn1cc(CCNS(=O)(=O)C2CC2)c2ccc(-c3cc(C(F)(F)F)ccc3C(F)(F)F)cc21` [Example 483, N-(2-(6-(2,5-bis(trifluoromethyl)phenyl)-1-neopentyl-1H-indol-3-yl)ethyl)cyclopropanesulfonamide], less than 500 nM.

Staying with this assay, now noted: Table 2, read-out: REVERBα agonism (EC50 class, FRET assay).
`CC(C)Cn1cc(CCNS(=O)(=O)N(C)C)c2ccc(-c3ncco3)cc21` [Compound 67, dimethyl({2-[1-(2-methylpropyl)-6-(1,3-oxazol-2-yl)-1H-indol-3-yl]ethyl}sulfamoyl)amine]: the EC50 fell in the range of 500 to 3000 nM. The same measure, in the same setting: as for `CC(C)Cn1cc(CCCNS(=O)(=O)N(C)C)c2ccc(-c3ccncc3)cc21` [Compound 235], the figure is more than 3000 nM; as for `C=C(C)c1ccc2c(CCNS(=O)(=O)N(C)C)cn(CC(C)C)c2c1` [Example 88], less than 500 nM; as for `CC(C)(C)Cn1cc([C@H](NS(=O)(=O)C2CCC2)C(F)(F)F)c2cc(F)c(-c3ccccc3C(F)(F)F)cc21` [Example 374, (S)—N-(2,2,2-trifluoro-1-(5-fluoro-1-neopentyl-6-(2-(trifluoromethyl)phenyl)-1H-indol-3-yl)ethyl)cyclobutanesulfonamide], less than 500 nM.

In the case of `CC(C)Cn1cc(CCNS(=O)(=O)N(C)C)c2ccc(Nc3ccnn3C)cc21` [Compound 69, 3-{2-[(dimethylsulfamoyl)amino]ethyl}-N-(1-methyl-1H-pyrazol-5-yl)-1-(2-methylpropyl)-1H-indol-6-amine], the EC50 was more than 3000 nM. As for `CC(C)Cn1cc([C@H]2C[C@H]2NS(=O)(=O)C(C)C)c2ccc(-c3ccncc3)cc21` [Compound 258], the EC50 is less than 500 nM. Same read-out and setting: in the case of `CC(C)Cn1cc(CCNS(=O)(=O)N(C)C)c2ccc(-c3ccoc3)cc21` [Compound 66, ({2-[6-(furan-3-yl)-1-(2-methylpropyl)-1H-indol-3-yl]ethyl}sulfamoyl)dimethylamine] it was less than 500 nM; in that of `CC(C)(C)Cn1cc([C@H](NS(=O)(=O)C2CC2)C(F)(F)F)c2cc(F)c(-c3ccccc3)cc21` [Example 350, (S)—N-(2,2,2-trifluoro-1-(5-fluoro-1-neopentyl-6-phenyl-1H-indol-3-yl)ethyl)cyclopropanesulfonamide], 500 to 3000 nM.
